The source of these data is US9090647B2, “Crystalline forms of rebaudioside B” (CARGILL, INCORPORATED, priority 2010, dated 2015).

In brackets after ≈: the same amount, converted by molar mass. Where two headings read alike, the source gives them in different places.

This data set can be described thus: Solubility of rebaudioside B crystal polymorphs by incremental addition to solvent in a temperature controlled stirred vessel, visual determination. In kind it is physicochemical. Conditions: for solubility in ethanol / solubility in water / solubility: 25° C.; for solubility: 25 °C, thermodynamic from solid. As for the experimental part:
The solubility of each of the four crystal polymorphs of rebaudioside B was determined in the following manner. Experiments were conducted using a known volume of solvent in a temperature controlled stirred vessel. The amount of solvent used was either 1 mL or 2 mL. Rebaudioside B was added to the solvent in the temperature controlled stirred vessel in 0.5 mg increments and held to visually determine if it dissolved. If the first 0.5 mg increment dissolved, another 0.5 mg increment was added and again held to visually determine if it dissolved. […] Each incremental addition of rebaudioside B was allowed a maximum of 1 hour to dissolve (if dissolution took place more quickly it was not necessary to wait the full 1 hour).

For the compound `C=C1C[C@@]23CC[C@H]4[C@@](C)(CCC[C@@]4(C)C(=O)O)[C@@H]2CC[C@]1(O[C@@H]1O[C@H](CO)[C@@H](O)[C@H](O[C@@H]2O[C@H](CO)[C@@H](O)[C@H](O)[C@H]2O)[C@H]1O[C@@H]1O[C@H](CO)[C@@H](O)[C@H](O)[C@H]1O)C3` [Form 3, rebaudioside B], the “solubility in ethanol (in words)” value was “moderate” and the solubility in ethanol entry is “about 10 mg/mL”. Besides, for the setting “water”, the “solubility in water (in words)” value is “low” and the solubility in water result is given as “less than 0.5 mg/mL”.
The matching figures for `C=C1C[C@@]23CC[C@H]4[C@@](C)(CCC[C@@]4(C)C(=O)O)[C@@H]2CC[C@]1(O[C@@H]1O[C@H](CO)[C@@H](O)[C@H](O[C@@H]2O[C@H](CO)[C@@H](O)[C@H](O)[C@H]2O)[C@H]1O[C@@H]1O[C@H](CO)[C@@H](O)[C@H](O)[C@H]1O)C3` [Form 2, rebaudioside B]: “low”, “about 2.7 mg/mL”, “low” and “less than 0.5 mg/mL”.
`C=C1C[C@@]23CC[C@H]4[C@@](C)(CCC[C@@]4(C)C(=O)O)[C@@H]2CC[C@]1(O[C@@H]1O[C@H](CO)[C@@H](O)[C@H](O[C@@H]2O[C@H](CO)[C@@H](O)[C@H](O)[C@H]2O)[C@H]1O[C@@H]1O[C@H](CO)[C@@H](O)[C@H](O)[C@H]1O)C3` [Form 1, rebaudioside B]: the “solubility in ethanol (in words)” value is listed as “moderate” and the solubility in ethanol entry is listed as “about 8.3 mg/mL”. Further, the solubility (95% ethanol/5% water solution, organic solvent or mixture, 95% ethanol/5% water solution, read-out: solubility in a 95% ethanol/5% water solution) is approximately 28 mg/mL (≈ 34.8 mM). Besides, the “solubility in an ethanol/water mixture (in words)” value (ethanol/water mixture) is “high”. In addition, the “solubility in water (in words)” value (water) is listed as “low”. The solubility (water, water, water, read-out: solubility in water) was less than 0.5 mg/mL.
